IC50 data for 22 compounds are collected here from patent US9193695B2, “1, 2, 4-triazolone derivative and use thereof as an antagonist on the arginine-vasopressin 1B receptor” (TAISHO PHARMACEUTICAL CO., LTD., priority 2010, dated 2015).

This experiment has as its target T1, Human V1b receptor (Homo sapiens, UniProt P47901).
T1 sequence (P47901 1-424): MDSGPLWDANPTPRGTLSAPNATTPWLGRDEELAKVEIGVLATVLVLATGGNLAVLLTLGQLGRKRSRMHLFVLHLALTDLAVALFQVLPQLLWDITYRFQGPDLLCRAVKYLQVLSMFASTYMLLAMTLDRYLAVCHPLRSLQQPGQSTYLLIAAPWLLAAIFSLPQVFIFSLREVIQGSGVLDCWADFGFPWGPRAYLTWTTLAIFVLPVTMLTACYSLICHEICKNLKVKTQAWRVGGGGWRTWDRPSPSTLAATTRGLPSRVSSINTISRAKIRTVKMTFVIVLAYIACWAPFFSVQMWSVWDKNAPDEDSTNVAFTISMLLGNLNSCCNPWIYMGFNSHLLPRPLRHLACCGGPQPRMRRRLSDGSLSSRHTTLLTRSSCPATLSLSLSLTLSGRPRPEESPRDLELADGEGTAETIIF
Briefly: Binding test for V1b receptor ([3H]AVP displacement, crude membrane preparation). Further details: expressed in transfected cells; host or cells: 293FT cells (Invitrogen), transient expression; crude membrane preparation. Particulars: [3H]AVP 0.4 to 1 nmol/L; membranes of 293FT cells transiently expressing human V1b receptor; room temperature, 60 minutes. On the procedure:
Binding Test for V1b Receptor
Human V1b receptor was transiently expressed in 293FT cells (Invitrogen). The cells were collected and were homogenated in a 15 mmol/L tris-hydrochloric acid buffer (pH 7.4, containing 2 mmol/L magnesium chloride, 0.3 mmol/L ethylenediaminetetracetic acid, and 1 mmol/L glycol ether diaminetetraacetic acid). The resulting homogenate was centrifuged at 50,000×g at 4° C. for 20 minutes. The precipitate was resuspended in a 75 mmol/L tris-hydrochloric acid buffer (pH 7.4, containing 12.5 mmol/L magnesium chloride, 0.3 mmol/L ethylenediaminetetracetic acid, 1 mmol/L glycol ether diamine tetraacetic acid, and 250 mmol/L sucrose) to give a crude membrane preparation, which was stored at −80° C. until the binding test. In the binding test, the crude membrane preparation was diluted with a 50 mmol/L tris-hydrochloric acid buffer (pH 7.4, containing 10 mmol/L magnesium chloride and 0.1% bovine serum albumin), and test compound was serially diluted with DMSO. The diluted crude membrane preparation was incubated with each test compound (final concentration of 0.01 nmol/L to 1 μmol/L) and [^3H]AVP (final concentration: 0.4 to 1 nmol/L) at room temperature for 60 minutes. After the incubation, the mixture was suction filtered through a GF/C filter pretreated with 0.3% polyethyleneimine. The GF/C filter was dried, and a scintillator was added thereto. The radioactivity remaining on the filter was measured using TopCount (PerkinElmer Inc.). The radioactivity in the presence of 10 μmol/L of unlabeled AVP was defined as 0%, and the radioactivity in the absence of unlabeled AVP was defined as 100%. A dose-response curve was plotted from radioactivities in the presence of a test compound at various concentrations, and the 50% inhibitory concentration (IC50 value) of the compound was calculated.
What is called IC50 is the midpoint of a concentration-inhibition curve. Low readings indicate inhibition by little substance, high ones a need for much substance. `CC(C)NC(=O)Cn1c(-c2cccc(Cl)c2)nn(-c2ccc(CC(C)N3CCOCC3)cn2)c1=O` (stereo not shown) [Ad-15, 2-[3-(3-Chlorophenyl)-1-{5-[2-(morpholin-4-yl)propyl]pyridin-2-yl}-5-oxo-1,5-dihydro-4H-1,2,4-triazol-4-yl]-N-(propan-2-yl)acetamide]: the IC50 worked out at 5.1 nM.

Compound `CC(C)NC(=O)Cn1c(-c2cccc(Cl)c2)nn(-c2ccc(CC(C)N3C4CCC3COC4)cn2)c1=O` (stereo not shown) [Ad-16, 2-[3-(3-Chlorophenyl)-1-{5-[2-(3-oxa-8-azabicyclo[3.2.1]oct-8-yl)propyl]pyridin-2-yl}-5-oxo-1,5-dihydro-4H-1,2,4-triazol-4-yl]-N-(propan-2-yl)acetamide] returned an IC50 of 0.92 nM. The figure for `CC(C)(C)NC(=O)Cn1c(-c2cccc(Cl)c2)nn(-c2ccc(CCN3CCOCC3)cn2)c1=O` [Ad-17, N-Tert-Butyl-2-[3-(3-chlorophenyl)-1-{5-[2-(morpholin-4-yl)ethyl]pyridin-2-yl}-5-oxo-1,5-dihydro-4H-1,2,4-triazol-4-yl]acetamide] is 3.5 nM; for `CC(C)(C)NC(=O)Cn1c(-c2cccc(Cl)c2)nn(-c2ccc(CCN3C4CCC3COC4)cn2)c1=O` [Ad-18, N-Tert-Butyl-2-[3-(3-chlorophenyl)-1-{5-[2-(3-oxa-8-azabicyclo[3.2.1]oct-8-yl)ethyl]pyridin-2-yl}-5-oxo-1,5-dihydro-4H-1,2,4-triazol-4-yl]acetamide] it is 2.6 nM; for `CC(C)NC(=O)Cn1c(-c2cccc(Cl)c2)nn(-c2ccc(CCN)cc2)c1=O` [Ad-21, 2-[3-(3-Chlorophenyl)-1-[4-(2-aminoethyl)phenyl]-5-oxo-1,5-dihydro-4H-1,2,4-triazol-4-yl]-N-(propan-2-yl)acetamide] it is 365 nM. In the case of `COc1cccc(-c2nn(-c3ccc(CCN4C5CCC4COC5)cc3)c(=O)n2CC(=O)NC(C)C)c1` [Ba-3, 2-[3-(3-Methoxyphenyl)-1-{4-[2-(3-oxa-8-azabicyclo[3.2.1]oct-8-yl)ethyl]phenyl}-5-oxo-1,5-dihydro-4H-1,2,4-triazol-4-yl]-N-(propan-2-yl)acetamide] it was 9.4 nM; in that of `COc1cccc(-c2nn(-c3ccc(CCN4CCOCC4)cn3)c(=O)n2CC(=O)NC(C)(C)C)c1` [Bd-1, N-Tert-Butyl-2-[3-(3-methoxyphenyl)-1-{5-[2-(morpholin-4-yl)ethyl]pyridin-2-yl}-5-oxo-1,5-dihydro-4H-1,2,4-triazol-4-yl]acetamide], 4.1 nM. `COc1cccc(-c2nn(-c3ccc(CCN4C5CCC4COC5)cn3)c(=O)n2CC(=O)NC(C)(C)C)c1` [Bd-2, N-Tert-Butyl-2-[3-(3-methoxyphenyl)-1-{5-[2-(3-oxa-8-azabicyclo[3.2.1]oct-8-yl)ethyl]pyridin-2-yl}-5-oxo-1,5-dihydro-4H-1,2,4-triazol-4-yl]acetamide]: the IC50 came to 3.6 nM. The figure for `COc1cccc(-c2nn(-c3ccc(CC(C)N4C5CCC4COC5)cc3)c(=O)n2CC(=O)NC(C)(C)C)c1` (stereo not shown) [Bd-3, N-Tert-Butyl-2-[3-(3-methoxyphenyl)-1-{4-[2-(3-oxa-8-azabicyclo[3.2.1]oct-8-yl)propyl]phenyl}-5-oxo-1,5-dihydro-4H-1,2,4-triazol-4-yl]acetamide] is 0.21 nM; for `COc1cccc(-c2nn(-c3ccc(CC(C)N4C5CCC4COC5)cn3)c(=O)n2CC(=O)NC(C)(C)C)c1` (stereo not shown) [Bd-4, N-Tert-Butyl-2-[3-(3-methoxyphenyl)-1-{5-[2-(3-oxa-8-azabicyclo[3.2.1]oct-8-yl)propyl]pyridin-2-yl}-5-oxo-1,5-dihydro-4H-1,2,4-triazol-4-yl]acetamide] it is 0.44 nM. In the case of `COc1cc(-c2nn(-c3ccc(CCN4CCCCC4)cc3)c(=O)n2CC(=O)NC(C)C)ccc1F` [Ca-1, 2-[3-(4-Fluoro-3-methoxyphenyl)-5-oxo-1-{4-[2-(piperidin-1-yl)ethyl]phenyl}-1,5-dihydro-4H-1,2,4-triazol-4-yl]-N-(propan-2-yl)acetamide] it was 26 nM.

Consider `COc1cc(-c2nn(-c3ccc(CCN4C5CCC4COC5)cc3)c(=O)n2CC(=O)NC(C)C)ccc1F` [Ca-5, 2-[3-(4-Fluoro-3-methoxyphenyl)-1-{4-[2-(3-oxa-8-azabicyclo[3.2.1]oct-8-yl)ethyl]phenyl}-5-oxo-1,5-dihydro-4H-1,2,4-triazol-4-yl]-N-(propan-2-yl)acetamide], for which the IC50 amounted to 4.4 nM. In turn, `COc1cc(-c2nn(-c3ccc(CCN4CC5(CCOCC5)C4)cc3)c(=O)n2CC(=O)NC(C)C)ccc1F` [Ca-6, 2-[3-(4-Fluoro-3-methoxyphenyl)-1-{4-[2-(7-oxa-2-azaspiro[3.5]non-2-yl)ethyl]phenyl}-5-oxo-1,5-dihydro-4H-1,2,4-triazol-4-yl]-N-(propan-2-yl)acetamide] gave an IC50 of 10 to 100 nM.

Take `COc1cc(-c2nn(-c3ccc(CCN4CC=CCC4)cc3)c(=O)n2CC(=O)NC(C)C)ccc1F` [Ca-7, 2-[1-{4-[2-(3,6-Dihydropyridin-1(2H)-yl)ethyl]phenyl}-3-(4-fluoro-3-methoxyphenyl)-5-oxo-1,5-dihydro-4H-1,2,4-triazol-4-yl]-N-(propan-2-yl)acetamide]: the half-inhibitory concentration (IC50) is 10 to 100 nM. The figure for `COc1cc(-c2nn(-c3ccc(CCN4CCSCC4)cc3)c(=O)n2CC(=O)NC(C)C)ccc1F` [Ca-8, 2-[3-(4-Fluoro-3-methoxyphenyl)-5-oxo-1-{4-[2-(thiomorpholin-4-yl)ethyl]phenyl}-1,5-dihydro-4H-1,2,4-triazol-4-yl]-N-(propan-2-yl)acetamide] is less than 10 nM. Consider `COc1cc(-c2nn(-c3ccc(CCN4CCC(C)CC4)cc3)c(=O)n2CC(=O)NC(C)C)ccc1F` [Ca-9, 2-[3-(4-Fluoro-3-methoxyphenyl)-1-{4-[2-(4-methylpiperidin-1-yl)ethyl]phenyl}-5-oxo-1,5-dihydro-4H-1,2,4-triazol-4-yl]-N-(propan-2-yl)acetamide], for which the IC50 lay within 10 to 100 nM.

On to `COc1cc(-c2nn(-c3ccc(CCN4CCC(C#N)CC4)cc3)c(=O)n2CC(=O)NC(C)C)ccc1F` [Ca-10, 2-[1-{4-[2-(4-Cyanopiperidin-1-yl)ethyl]phenyl}-3-(4-fluoro-3-methoxyphenyl)-5-oxo-1,5-dihydro-4H-1,2,4-triazol-4-yl]-N-(propan-2-yl)acetamide], for which the IC50 lay in the range of 100 to 1000 nM. In the case of `COc1cc(-c2nn(-c3ccc(CCN4CCCC(OC)C4)cc3)c(=O)n2CC(=O)NC(C)C)ccc1F` (stereo not shown) [Ca-11, 2-[3-(4-Fluoro-3-methoxyphenyl)-1-{4-[2-(3-methoxypiperidin-1-yl)ethyl]phenyl}-5-oxo-1,5-dihydro-4H-1,2,4-triazol-4-yl]-N-(propan-2-yl)acetamide] it was 10 to 100 nM; in that of `CCCC1CCN(CCc2ccc(-n3nc(-c4ccc(F)c(OC)c4)n(CC(=O)NC(C)C)c3=O)cc2)CC1` [Ca-12, 2-[3-(4-Fluoro-3-methoxyphenyl)-5-oxo-1-{4-[2-(4-propylpiperidin-1-yl)ethyl]phenyl}-1,5-dihydro-4H-1,2,4-triazol-4-yl]-N-(propan-2-1)acetamide], 100 to 1000 nM; in that of `COc1cc(-c2nn(-c3ccc(CCN4CCC(C(N)=O)CC4)cc3)c(=O)n2CC(=O)NC(C)C)ccc1F` [Ca-13, 1-[2-(4-{3-(4-Fluoro-3-methoxyphenyl)-5-oxo-4-[2-oxo-2-(propan-2-ylamino)ethyl]-4,5-dihydro-1H-1,2,4-triazol-1-yl}phenyl)ethyl]piperidine 4-carboxamide], 100 to 1000 nM.

For `COc1cc(-c2nn(-c3ccc(CCN4CCC(N(C)C)CC4)cc3)c(=O)n2CC(=O)NC(C)C)ccc1F` [Ca-14, 2-[1-(4-{2-[4-(Dimethylamino)piperidin-1-yl]ethyl}phenyl)-3-(4-fluoro-3-methoxyphenyl)-5-oxo-1,5-dihydro-4H-1,2,4-triazol-4-yl]-N-(propan-2-yl)acetamide], the IC50 lay within 100 to 1000 nM. In the case of `COc1cc(-c2nn(-c3ccc(CCN4CCC5CCCCC5C4)cc3)c(=O)n2CC(=O)NC(C)C)ccc1F` (stereo not shown) [Ca-15, 2-[3-(4-Fluoro-3-methoxyphenyl)-1-{4-[2-(octahydroisoquinolin-2(1H)-yl)ethyl]phenyl}-5-oxo-1,5-dihydro-4H-1,2,4-triazol-4-yl]-N-(propan-2-yl)acetamide] it was 10 to 100 nM.
